“And” between values parts separate entries of the source, which are not always exact repeats. Identical values can stand only once. Inconclusive results and toxic doses are left out.
Test system: CD2F1 mice, L1210 leukemia ip, survival T/C
Experiment: NCI In Vivo Anticancer Drug Screen. Data for tumor model L1210 Leukemia (intraperitoneal) in CD2F1 (CDF1) mice
Conditions: higher = longer survival
Method in brief: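 Antitumor effect is scored in animals hosting a serially transplanted tumor. Values compare compound-dosed animals against vehicle-only controls as a simple quotient.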

[1] = endpoint: mean survival time, dose: 50.0 mg/kg/injection, schedule: Q04DX002 (ip), vehicle: saline with Tween-80
[2] = endpoint: mean survival time, dose: 100.0 mg/kg/injection, schedule: Q01DX001 (ip), vehicle: saline with Tween-80
[3] = endpoint: mean survival time, dose: 100.0 mg/kg/injection, schedule: Q04DX002 (ip), vehicle: saline with Tween-80
[4] = endpoint: mean survival time, dose: 200.0 mg/kg/injection, schedule: Q01DX001 (ip), vehicle: saline with Tween-80
[5] = endpoint: mean survival time, dose: 200.0 mg/kg/injection, schedule: Q04DX002 (ip), vehicle: saline with Tween-80
[6] = endpoint: mean survival time, dose: 50.0 mg/kg/injection, schedule: Q01DX005 (ip), vehicle: distilled water + Tween-80
[7] = endpoint: mean survival time, dose: 100.0 mg/kg/injection, schedule: Q01DX005 (ip), vehicle: distilled water + Tween-80
[8] = endpoint: mean survival time, dose: 200.0 mg/kg/injection, schedule: Q01DX005 (ip), vehicle: distilled water + Tween-80
[9] = endpoint: mean survival time, dose: 50.0 mg/kg/injection, schedule: Q01DX009 (ip), vehicle: saline with Tween-80
[10] = endpoint: mean survival time, dose: 100.0 mg/kg/injection, schedule: Q01DX009 (ip), vehicle: saline with Tween-80
[11] = endpoint: mean survival time, dose: 200.0 mg/kg/injection, schedule: Q01DX009 (ip), vehicle: saline with Tween-80
[12] = endpoint: mean survival time, dose: 100.0 mg/kg/injection, schedule: Q04DX003 (ip), vehicle: saline with Tween-80
[13] = endpoint: mean survival time, dose: 200.0 mg/kg/injection, schedule: Q04DX003 (ip), vehicle: saline with Tween-80
[14] = endpoint: mean survival time, dose: 400.0 mg/kg/injection, schedule: Q04DX003 (ip), vehicle: saline with Tween-80

Compound: [Cl][Pt+2][Cl].[N-]=C(N)/N=C(\[NH-])N
- T/C (endpoint: median survival time, dose: 12.5 mg/kg/injection, schedule: Q04DX003 (ip), vehicle: distilled water + Tween-80): 104 % of control
- T/C (endpoint: median survival time, dose: 25.0 mg/kg/injection, schedule: Q04DX003 (ip), vehicle: distilled water + Tween-80): 101 % of control
- T/C (endpoint: median survival time, dose: 50.0 mg/kg/injection, schedule: Q04DX003 (ip), vehicle: distilled water + Tween-80): 101 % of control
- T/C (endpoint: median survival time, dose: 100.0 mg/kg/injection, schedule: Q04DX003 (ip), vehicle: distilled water + Tween-80): 108 % of control
- T/C (endpoint: median survival time, dose: 200.0 mg/kg/injection, schedule: Q04DX003 (ip), vehicle: distilled water + Tween-80): 108 % of control

Compound: O=C(O)c1nc2ccccc2c(=O)[nH]1
- T/C [1]: 93 % of control
- T/C [2]: 102 % of control
- T/C [3]: 93 % of control
- T/C [4]: 92 % of control
- T/C [5]: 93 % of control

Compound: C=C1C(=O)OC2CC(C)C3CC(OCCCl)OC(OCCCl)C3(C)CC12 (stereo not drawn)
- T/C (endpoint: mean survival time, dose: 10.0 mg/kg/injection, schedule: Q01DX005 (ip), vehicle: water): 98 % of control
- T/C (endpoint: mean survival time, dose: 20.0 mg/kg/injection, schedule: Q01DX005 (ip), vehicle: water): 96 % of control
- T/C (endpoint: mean survival time, dose: 40.0 mg/kg/injection, schedule: Q01DX005 (ip), vehicle: water): 93 % of control
- T/C [6]: 92 % of control
- T/C (endpoint: mean survival time, dose: 80.0 mg/kg/injection, schedule: Q01DX005 (ip), vehicle: water): 94 % of control
- T/C [7]: 97 % of control
- T/C [8]: 89 % of control
- T/C (endpoint: mean survival time, dose: 400.0 mg/kg/injection, schedule: Q01DX005 (ip), vehicle: distilled water + Tween-80): 94 % of control

Compound: CC(=O)OC1COC(n2cnc(C#N)c2C#N)C(OC(C)=O)C1OC(C)=O (stereo not drawn)
- T/C (endpoint: mean survival time, dose: 12.5 mg/kg/injection, schedule: Q01DX005 (ip), vehicle: distilled water + Tween-80): 101 % of control and 98 % of control
- T/C (endpoint: mean survival time, dose: 25.0 mg/kg/injection, schedule: Q01DX005 (ip), vehicle: distilled water + Tween-80): 95 % of control and 103 % of control
- T/C [6]: 93 % of control and 101 % of control
- T/C [7]: 97 % of control
- T/C [8]: 93 % of control and 104 % of control

Compound: CC(C)(C)CC(C)(C)c1ccc(OCCOS(=O)(=O)c2cccc([N+](=O)[O-])c2)cc1
- T/C [9]: 96 % of control
- T/C [10]: 89 % of control
- T/C [11]: 94 % of control

Compound: [O-][n+]1cccc(CCc2ccc[n+]([O-])c2)c1
- T/C (endpoint: mean survival time, dose: 50.0 mg/kg/injection, schedule: Q01DX009 (ip), vehicle: saline): 100 % of control
- T/C (endpoint: mean survival time, dose: 100.0 mg/kg/injection, schedule: Q01DX009 (ip), vehicle: saline): 104 % of control
- T/C (endpoint: mean survival time, dose: 200.0 mg/kg/injection, schedule: Q01DX009 (ip), vehicle: saline): 100 % of control

Compound: CCCCCCCCC1SC1CCCCCCCC(=O)NCCOC(=O)CCCCCCCC1SC1CCCCCCCC (stereo not drawn)
- T/C [10]: 92 % of control
- T/C [11]: 95 % of control
- T/C (endpoint: mean survival time, dose: 400.0 mg/kg/injection, schedule: Q01DX009 (ip), vehicle: saline with Tween-80): 93 % of control

Compound: CC(C)(C)C(CCC(=O)O)CC(=O)O (stereo not drawn)
- T/C [12]: 97 % of control
- T/C [13]: 96 % of control
- T/C [14]: 100 % of control

Compound: O=C(O)c1ccccc1F
- T/C [2]: 96 % of control
- T/C [4]: 107 % of control

Compound: CS(=O)(=O)c1cc([N+](=O)[O-])cc([N+](=O)[O-])c1Cl
- T/C (endpoint: mean survival time, dose: 2.5 mg/kg/injection, schedule: Q01DX009 (ip), vehicle: saline with Tween-80): 95 % of control
- T/C (endpoint: mean survival time, dose: 5.0 mg/kg/injection, schedule: Q01DX009 (ip), vehicle: saline with Tween-80): 91 % of control
- T/C (endpoint: mean survival time, dose: 5.0 mg/kg/injection, schedule: Q04DX003 (ip), vehicle: saline with Tween-80): 97 % of control
- T/C (endpoint: mean survival time, dose: 10.0 mg/kg/injection, schedule: Q01DX009 (ip), vehicle: saline with Tween-80): 96 % of control
- T/C (endpoint: mean survival time, dose: 10.0 mg/kg/injection, schedule: Q04DX003 (ip), vehicle: saline with Tween-80): 100 % of control

Compound: CN(C)c1ccc2c(N(C)C)cc(N(C)C)nc2c1
- T/C (endpoint: mean survival time, dose: 0.78 mg/kg/injection, schedule: Q01DX009 (ip), vehicle: Klucel (hydroxypropylcellulose) (HPC)): 106 % of control
- T/C (endpoint: mean survival time, dose: 1.56 mg/kg/injection, schedule: Q01DX009 (ip), vehicle: Klucel (hydroxypropylcellulose) (HPC)): 102 % of control
- T/C (endpoint: mean survival time, dose: 3.12 mg/kg/injection, schedule: Q01DX009 (ip), vehicle: Klucel (hydroxypropylcellulose) (HPC)): 104 % of control
- T/C (endpoint: mean survival time, dose: 6.25 mg/kg/injection, schedule: Q01DX009 (ip), vehicle: Klucel (hydroxypropylcellulose) (HPC)): 98 % of control
- T/C (endpoint: mean survival time, dose: 12.5 mg/kg/injection, schedule: Q01DX009 (ip), vehicle: Klucel (hydroxypropylcellulose) (HPC)): 113 % of control and 96 % of control
- T/C (endpoint: mean survival time, dose: 25.0 mg/kg/injection, schedule: Q01DX009 (ip), vehicle: Klucel (hydroxypropylcellulose) (HPC)): 88 % of control

Compound: C[n+]1cc(Br)c2ccccc2c1
- T/C (endpoint: mean survival time, dose: 75.0 mg/kg/injection, schedule: Q01DX001 (ip), vehicle: saline): 100 % of control
- T/C (endpoint: mean survival time, dose: 150.0 mg/kg/injection, schedule: Q01DX001 (ip), vehicle: saline): 103 % of control

Compound: Oc1ccccc1-c1nnc(-c2ccccc2)o1
- T/C [1]: 91 % of control
- T/C [3]: 87 % of control
- T/C [5]: 95 % of control
- T/C (endpoint: mean survival time, dose: 400.0 mg/kg/injection, schedule: Q04DX002 (ip), vehicle: saline with Tween-80): 87 % of control

Compound: C1=CC=CCC=C1
- T/C (endpoint: mean survival time, dose: 12.5 mg/kg/injection, schedule: Q01DX009 (ip), vehicle: saline with Tween-80): 92 % of control
- T/C (endpoint: mean survival time, dose: 25.0 mg/kg/injection, schedule: Q01DX009 (ip), vehicle: saline with Tween-80): 92 % of control
- T/C [9]: 98 % of control

Compound: CNC(=O)NNc1ccccc1
- T/C [12]: 102 % of control
- T/C [13]: 98 % of control
- T/C [14]: 104 % of control

Compound: O=c1[nH]cc(F)c(=O)n1C1OC(CO)C(O)C1O (stereo not drawn)
- T/C (endpoint: mean survival time, dose: 1.0 mg/kg/injection, schedule: Q01DX009 (ip), vehicle: saline): 169 % of control
- T/C (endpoint: mean survival time, dose: 2.0 mg/kg/injection, schedule: Q01DX005 (ip), vehicle: saline): 160 % of control
- T/C (endpoint: mean survival time, dose: 2.0 mg/kg/injection, schedule: Q01DX009 (ip), vehicle: saline): 160 % of control
- T/C (endpoint: mean survival time, dose: 4.0 mg/kg/injection, schedule: Q01DX005 (ip), vehicle: saline): 207 % of control
- T/C (endpoint: mean survival time, dose: 4.0 mg/kg/injection, schedule: Q01DX009 (ip), vehicle: saline): 124 % of control
- T/C (endpoint: mean survival time, dose: 5.0 mg/kg/injection, schedule: Q03HX024 (ip), vehicle: saline): 155 % of control
- T/C (endpoint: mean survival time, dose: 5.0 mg/kg/injection, schedule: Q04DX003 (ip), vehicle: saline): 163 % of control
- T/C (endpoint: mean survival time, dose: 10.0 mg/kg/injection, schedule: Q03HX024 (ip), vehicle: saline): 231 % of control
- T/C (endpoint: mean survival time, dose: 10.0 mg/kg/injection, schedule: Q04DX003 (ip), vehicle: saline): 189 % of control
- T/C (endpoint: mean survival time, dose: 20.0 mg/kg/injection, schedule: Q01DX001 (ip), vehicle: saline): 151 % of control
- T/C (endpoint: mean survival time, dose: 20.0 mg/kg/injection, schedule: Q03HX024 (ip), vehicle: saline): 151 % of control
- T/C (endpoint: mean survival time, dose: 20.0 mg/kg/injection, schedule: Q04DX003 (ip), vehicle: saline): 184 % of control

Compound: CC1(C)CC2(OC2c2ccccc2)C(C)(O)c2ccccc21 (stereo not drawn)
- T/C (endpoint: mean survival time, dose: 100.0 mg/kg/injection, schedule: Q01DX009 (ip), vehicle: other): 105 % of control
- T/C (endpoint: mean survival time, dose: 200.0 mg/kg/injection, schedule: Q01DX009 (ip), vehicle: other): 113 % of control
- T/C (endpoint: mean survival time, dose: 400.0 mg/kg/injection, schedule: Q01DX009 (ip), vehicle: other): 104 % of control

Compound: COC1OC(COC(C)=O)C(OC(C)=O)C(NC(=O)N(CCCl)N=O)C1OC(C)=O (stereo not drawn)
- T/C (endpoint: mean survival time, dose: 13.0 mg/kg/injection, schedule: Q01DX001 (ip), vehicle: saline with Tween-80): 240 % of control
- T/C (endpoint: mean survival time, dose: 20.0 mg/kg/injection, schedule: Q01DX001 (ip), vehicle: saline with Tween-80): 469 % of control
- T/C (endpoint: mean survival time, dose: 30.0 mg/kg/injection, schedule: Q01DX001 (ip), vehicle: saline with Tween-80): 535 % of control
- T/C (endpoint: mean survival time, dose: 44.0 mg/kg/injection, schedule: Q01DX001 (ip), vehicle: saline with Tween-80): 459 % of control
- T/C (endpoint: mean survival time, dose: 67.0 mg/kg/injection, schedule: Q01DX001 (ip), vehicle: saline with Tween-80): 245 % of control

Compound: O=C1CCC(=O)CC1
- T/C (endpoint: mean survival time, dose: 100.0 mg/kg/injection, schedule: Q04DX002 (ip), vehicle: saline): 111 % of control
- T/C (endpoint: mean survival time, dose: 200.0 mg/kg/injection, schedule: Q04DX002 (ip), vehicle: saline): 107 % of control
- T/C (endpoint: mean survival time, dose: 400.0 mg/kg/injection, schedule: Q04DX002 (ip), vehicle: saline): 107 % of control
